# Laboratory results taken from publication PMC12799421, “Inhibition of constitutive activity of the atypical chemokine receptor 3 by the small-molecule inverse agonist VUF16840” (Molecular Pharmacology, 2025).
# Assays:
# Type in all cases: cell-based
# ACKR3 [1] = biological target: T1, ACKR3 (Homo sapiens, UniProt P25106); test: NanoBiT-complementation β-arrestin2 recruitment to hACKR3 in HEK293T cells; conditions: for EC50: * VUF16840 as inverse agonist, 15 minutes incubation, read-out: β-arrestin2 NanoBit pEC50 (converted)
# T1 construct: expressed in transfected cells; host or cells: HEK293T
# Procedure: (§1) For 1·10^6 HEK293T cells, a transfection mix consisting of 2 μg plasmid DNA, 12 μg linear PEI in a total volume of 200 μL 150 mM NaCl was made and thoroughly vortexed. The transfection mix was incubated for 15 minutes and consequently added to a cell suspension with a final concentration of 3·10^5 cells/mL. For functional studies this cell suspension was immediately transferred to a poly-L-lysine-coated white 96-well plate, with 3·10^4 cells per well. […] For BRET-based membrane localization experiments, the 2 μg plasmid DNA consisted of ACKR3-NL (0.05 μg), mVenus-CAAX (0.25 μg), and pcDEF3 vector DNA without insert (1.7 μg).
# Two days after transfection (vide supra), medium was aspirated and cells were reconstituted in HBSS with 0.05% BSA. […] After treating the cell with ligand furimazine was added (310 times diluted from stock concentration). Cells were incubating at 37 °C for another 3 minutes before detection of bioluminescent intensities.
# To determine the insurmountable antagonism of VUF16840, medium of transfected cells was aspirated and cells were reconstituted in HBSS with 20 mM HEPES and 0.1% BSA. Cells were incubated with VUF16840 or buffer for 60 minutes after which furimazine was added and cells were incubated for another 5 minutes, all at 37 °C.
# Bioluminescence was measured using the PHERAstar-FSX and is a measure for the relative proximity of LgBiT- and SmBiT-tagged proteins and thus the occurrence of investigated protein–protein interaction.[38]
# (§2) Mean pIC50 values were determined by averaging fitted values from individual experiments. Graphs depict the pooled data of all experiments. Similarly, sigmoidal, ligand-induced concentration-dependent activation or inhibition of the proximity between ACKR3 and the protein of interest was analyzed using GraphPad Prism 8, by fitting a 3-parameter concentration-response model to the data, to determine pEC50/pIC50 values. Mean pEC50 values and pIC50 values were determined by averaging fitted values from individual experiments. Graphs depict the pooled data of all experiments, for which values are normalized, per experiment, to the fold difference compared with basal signal.
# ACKR3 [2] = biological target: T1, ACKR3; test: BRET β-arrestin1 recruitment to ACKR3 in HEK293T cells; conditions: for EC50: * VUF16840 as inverse agonist, read-out: β-arrestin1 BRET pEC50 (converted); for IC50: read-out: β-arrestin1 BRET, Inhibition by VUF16840 (pIC50) (converted)
# Procedure: (§3) For bioluminescence resonance energy transfer (BRET) experiments, several BRET acceptor constructs were used that consist of the pcDEF3 vector with either GRK2 (NCBI: NM_174710.2), β-arrestin1 (NCBI: NM_174243.3), or β-arrestin2 (NCBI: XM_005220181.4) fused at the C-terminus with a SpeI/NotI linker to mVenus (NCBI: KP666136.1), as previously described.[34]
# as §1, §2
# HEK293T cells were stimulated with increasing concentrations of VUF15485 or VUF16840 only (A–D), or increasing concentrations of VUF16840 in the presence of 100 nM VUF15485 (E–H). The resulting proximity between ACKR3 and β-arrestin1 (A, E), GRK2 (B, F), or Rab5a (C, G) was determined by bioluminescence resonance energy transfer. Furthermore, an interaction between clathrin A and β-arrestin2 was measured by NLuc complementation, as was determined by quantifying the relative light units (D, H). Depicted data is normalized as fold-basal and represents the mean ± SD of N experiments with triplicate measurements per experiment. N is specified in Supplemental Table 1.
# ACKR3 [3] = biological target: T1, ACKR3; test: BRET GRK2 recruitment to ACKR3 in HEK293T cells; conditions: for EC50: * VUF16840 as inverse agonist, read-out: GRK2 BRET pEC50 (converted)
# Procedure: as §3, §1
# The sigmoidal concentration-dependent displacement of binding of the probes [^3H]VUF15485 and CXCL12-A647 by unlabeled ligands were analyzed using GraphPad Prism 8, by fitting a one-site binding model to the data, to determine the pIC50. Mean pIC50 values were determined by averaging fitted values from individual experiments. Graphs depict the pooled data of all experiments. Similarly, sigmoidal, ligand-induced concentration-dependent activation or inhibition of the proximity between ACKR3 and the protein of interest was analyzed using GraphPad Prism 8, by fitting a 3-parameter concentration-response model to the data, to determine pEC50/pIC50 values. Mean pEC50 values and pIC50 values were determined by averaging fitted values from individual experiments. […]
# Fig. 5 Inhibition of both constitutive as well as agonist-induced ACKR3 activity by VUF16840. […] The resulting proximity between ACKR3 and β-arrestin1 (A, E), GRK2 (B, F), or Rab5a (C, G) was determined by bioluminescence resonance energy transfer. […]
# T1 sequence (P25106 whole entry): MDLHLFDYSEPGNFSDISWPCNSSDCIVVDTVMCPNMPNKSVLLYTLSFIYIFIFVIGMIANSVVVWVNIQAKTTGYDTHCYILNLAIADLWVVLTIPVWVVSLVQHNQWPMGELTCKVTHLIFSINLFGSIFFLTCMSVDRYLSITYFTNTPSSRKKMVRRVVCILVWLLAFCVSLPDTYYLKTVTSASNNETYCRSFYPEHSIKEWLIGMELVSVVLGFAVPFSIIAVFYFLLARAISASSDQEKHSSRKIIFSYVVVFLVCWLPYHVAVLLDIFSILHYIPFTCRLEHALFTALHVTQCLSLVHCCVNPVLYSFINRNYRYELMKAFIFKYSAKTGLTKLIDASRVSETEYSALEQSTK
EC50 (ACKR3 [1]) [nM],EC50 (ACKR3 [2]) [nM],EC50 (ACKR3 [3]) [nM],fashion of inhibition of CXCL12- and CXCL11-mediated β-arrestin2 recruitment (Schild analysis) (ACKR3 [1]; 60 minutes pretreatment with VUF16840),"IC50 (ACKR3 [1]; inverse agonist, after 30 minutes of incubation, read-out: IC50, inhibition of constitutive β-arrestin2 recruitment to hACKR3 (NanoBiT)) [nM]","IC50 (ACKR3 [1]; versus 100 nM VUF15485, read-out: β-arrestin2 NanoBit, Inhibition by VUF16840 (pIC50) (converted)) [nM]",IC50 (ACKR3 [2]; versus 100 nM CXCL11) [nM],IC50 (ACKR3 [2]; versus 100 nM CXCL12) [nM],IC50 (ACKR3 [2]; versus 100 nM VUF15485) [nM],"IC50 (ACKR3 [3]; versus 100 nM VUF15485, read-out: GRK2 BRET, Inhibition by VUF16840 (pIC50) (converted)) [nM]",SMILES
15.8,39.8,25.1,–,–,–,–,–,–,–,"COc1cc(C(=O)N(CCC2CCCN2C)CC(C)=Cc2ccccc2F)cc(OC)c1OC (stereo not shown) [VUF15485, reference compound]"
15.8,5.01,3.16,nonsurmountable,6.3,20,2.51,5.01,2,3.98,COc1ccccc1CCNC(=O)C1CN(C2CCCCC2)CCC1NC(=O)c1cc(-c2ccc(F)cc2F)on1 (stereo not shown) [VUF16840]
